Measurements as given in the supplement of paper PMC10307832.

Key:
Test in all cases: relative viability (nuclei count vs DMSO), 5 days (fraction); higher = more cells survive
BI-D1870 + Pemetrexed = compound: CC(C)CCN1c2nc(Nc3cc(F)c(O)c(F)c3)ncc2N(C)C(=O)C1C [BI-D1870] + Nc1nc2[nH]cc(CCc3ccc(C(=O)N[C@@H](CCC(=O)O)C(=O)O)cc3)c2c(=O)[nH]1 [Pemetrexed] (partner 0.2 µM)
Procedure, shortened: (§1)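 Medians of duplicate plates are given as relative viability. That measure is the nuclei count in treated wells divided by the count in vehicle wells. Counts were taken on 4× images of lung cancer cell lines in 1536-well plates, 5 days after pin-tool dosing the day after seeding with one drug alone or a fixed anchor-drug dose plus five library-drug doses (not always all listed) in √10 steps.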

BI-D1870 + Decitabine = compound: CC(C)CCN1c2nc(Nc3cc(F)c(O)c(F)c3)ncc2N(C)C(=O)C1C [BI-D1870] + Nc1ncn([C@H]2C[C@H](O)[C@@H](CO)O2)c(=O)n1 [Decitabine] (partner 2 µM)
Procedure, shortened: as §1

Zebularine + Linsitinib = compound: O=c1ncccn1[C@@H]1O[C@H](CO)[C@@H](O)[C@H]1O [Zebularine] + C[C@]1(O)C[C@@H](c2nc(-c3ccc4ccc(-c5ccccc5)nc4c3)c3c(N)nccn32)C1 [Linsitinib] (partner 1 µM)
Procedure, shortened: as §1

BI-D1870 + Phenformin = compound: CC(C)CCN1c2nc(Nc3cc(F)c(O)c(F)c3)ncc2N(C)C(=O)C1C [BI-D1870] + N=C(N)NC(=N)NCCc1ccccc1 [Phenformin] (partner 250 µM)
Procedure, shortened: as §1

## UMC-11
BI-D1870 + Pemetrexed; first compound 0.04 µM
  relative viability: 0.812
BI-D1870 + Pemetrexed; first compound 0.1265 µM
  relative viability: 0.751
BI-D1870 + Pemetrexed; first compound 0.4 µM
  relative viability: 0.777
BI-D1870 + Pemetrexed; first compound 1.265 µM
  relative viability: 0.779
BI-D1870 + Pemetrexed; first compound 4 µM
  relative viability: 0.277
BI-D1870 + Decitabine; first compound 0.04 µM
  relative viability: 0.581
BI-D1870 + Decitabine; first compound 0.1265 µM
  relative viability: 0.466
BI-D1870 + Decitabine; first compound 0.4 µM
  relative viability: 0.669
BI-D1870 + Decitabine; first compound 1.265 µM
  relative viability: 0.674
BI-D1870 + Decitabine; first compound 4 µM
  relative viability: 0.622
Zebularine + Linsitinib; first compound 1 µM
  relative viability: 1.21
Zebularine + Linsitinib; first compound 3.162 µM
  relative viability: 1.02
Zebularine + Linsitinib; first compound 10 µM
  relative viability: 0.691
Zebularine + Linsitinib; first compound 31.62 µM
  relative viability: 0.574
Zebularine + Linsitinib; first compound 100 µM
  relative viability: 0.418
BI-D1870 + Phenformin; first compound 0.04 µM
  relative viability: 0.332
BI-D1870 + Phenformin; first compound 0.1265 µM
  relative viability: 0.285
BI-D1870 + Phenformin; first compound 0.4 µM
  relative viability: 0.33
BI-D1870 + Phenformin; first compound 1.265 µM
  relative viability: 0.295
BI-D1870 + Phenformin; first compound 4 µM
  relative viability: 0.183
